{"source": "patent US10519504B2", "about": "“Methods for treatment of oncological disorders using epimetabolic shifters, multidimensional intracellular molecules, or environmental influencers” (Berg LLC, priority 2009, dated 2019)", "key": {"SkBr-3 cells": {"test_system": "SkBr-3 cells", "assay": "Real-time PCR Apoptosis Array", "format": "cell-based, human", "procedure": "RNA was quantified by measuring Optical Density at 260 nm.\nChanges in mRNA levels were evaluated using real-time PCR quantification to assess mRNA levels in pre-selected subsets containing […] pathway specific targets.\nThe assay method of RT-PCR was utilized to provide a measure of mRNA level changes to a total of 84 apoptotic pathway related proteins."}, "[1]": {"test_system": "MCF-7 breast cancer cells", "assay": "OCR and ECAR, SeaHorse XF analyzer", "format": "cell-based", "source_text": "(SeaHorse Biosciences Inc, North Billerica, Mass.).\nIn contrast, cancer cells (e.g., MCF-7, PaCa-2) are inherently primed to culture at higher levels of glucose compared to normal cells due to their glycolytic phenotype for maintenance in culture."}, "SCC cells [2]": {"test_system": "SCC cells", "assay": "Real-time PCR Heat Shock Protein Array", "format": "cell-based", "source_text": "(§1) The control cells were untreated cells.\nHeat Shock Arrays were run for SCC cells and the data of regulated genes is summarized below in Table 13."}, "[3]": {"test_system": "Pancreatic Cancer Cells (PaCa2)", "assay": "Real-time PCR Apoptosis Array", "format": "cell-based", "procedure": "(§2) Experiments were carried out essentially as described above."}, "SCC cells [4]": {"test_system": "SCC cells", "assay": "Real-time PCR Diabetes Array", "format": "cell-based", "source_text": "as §1"}, "SK-MEL28": {"test_system": "SK-MEL28", "assay": "Nexin assay for apoptosis (Annexin-V-PE/7-AAD, flow cytometry)", "format": "cell-based", "conditions": "50 μM and 100 μM Q10, 24 hours", "source_text": "(§3) The 7AAD dye will enter into cells with permeabilized cell membranes; primarily those cells that are in late apoptosis. Annexin-V-PE is a dye that binds to Phosphotidyl serine, which is exposed on the outer surface of the plasma membrane in early apoptotic cells. The Nexin reagent thus can be used to differentiate between different populations of apoptotic cells in a flow cytometer."}, "PC-3": {"test_system": "PC-3", "assay": "Nexin assay for apoptosis (Annexin-V-PE/7-AAD, flow cytometry)", "format": "cell-based", "conditions": "50 μM and 100 μM Q10, 24 hours, less than in PaCa2", "source_text": "as §3"}, "MCF-7": {"test_system": "MCF-7", "assay": "Nexin assay for apoptosis (Annexin-V-PE/7-AAD, flow cytometry)", "format": "cell-based", "conditions": "50 μM and 100 μM Q10, 24 hours", "source_text": "as §3"}, "various cell types": {"test_system": "various cell types", "assay": "Induction of early apoptosis in oncogenic and normal cell types (Bcl-2, caspase, annexin V)", "format": "cell-based", "procedure": "CoQ10 treatment of cells was carried out as described in detail below in the Materials and Methods. Induction of apoptosis was assessed in the treated cells by monitoring indicators of early apoptosis (e.g., Bcl-2 expression, caspase activation and by using annexin V assays) as described below. From these studies, the minimal CoQ10 dosage, e.g., concentration of CoQ10 and time of treatment, required to induce apoptosis in the panel of cell lines was determined.\nCells were cultured in T-75 flasks with relevant medium supplemented with 10% Fetal Bovine Serum (FBS), 1% PSA (penicillin, streptomycin, amphotericin B) (Invitrogen and Cellgro) in a 37° C. incubator with 5% CO2 levels until 70-80% confluence was reached. To harvest cells for treatment, flasks were primed with 1 mL Trypsin, aspirated, trypsinized with an additional 3 mL, and incubated at 37° C. for 3-5 minutes. Cells were then neutralized with an equal volume of media and the subsequent solution was centrifuged at […] for 8 minutes. The supernatant was aspirated and the cells were resuspended with 8.5 ml of media. A mixture of 500 ul of the resuspension and 9.5 ml of […] was read twice by a coulter counter and the appropriate number of cells to be seeded into each dish was determined. Control and concentration ranging from 0-200 μM groups were examined in triplicate. From a 500 μM CoQ-10 stock solution, serial dilutions were performed to achieve desired experimental concentration in appropriate dishes. Dishes were incubated in a 37° C. incubator with 5% CO2 levels for 0-72 hours depending on cell type and experimental protocol.\nThe volume of sample to load per well was determined using the raw mean concentration of protein obtained from the BCA protein assay. Approximately 30-60 μg of protein were loaded for each treatment time point. Proteins were run in triplicate on 12% Tris-HCl ready gels (Bio-Rad) or hand cast gels in 1× running buffer at 85 and 100 volts. Proteins were then transferred onto nitrocellulose paper for an hour at 100 volts, and blocked for another hour in a 5% milk solution. Membranes were placed in primary antibody (1 uL Ab:1000 uL TBST) (Cell Signaling) overnight at […] The following day, membranes were washed three times for ten minutes each with Tris-Buffered Saline Tween-20 (TBST), and secondary antibody (anti-rabbit; 1 uL Ab: 1000 uL TBST) was applied for an hour at […] Membranes were washed again three times for ten minutes with TBST and chemoluminescence using Pico or Femto substrate was completed (Pierce). Membranes were then developed at time intervals that produced the best visual results. After developing, membranes were kept in TBST at […] until Actin levels could be measured.\nCells were washed twice in PBS10× and resuspended in Binding Buffer (0.1 M HEPES, pH 7.4; 1.4 M NaCl; 25 mM CaCl2). Samples of 100 μl were added to a culture tube with 5 μl of annexin-PE dye or […]. The cells were mixed and incubated without light at room temperature for 15 minutes. After which, 400 μl of 1× Binding Buffer was added to each sample and they were subjected to analysis by flow cytometry."}, "[5]": {"test_system": "Pancreatic Cancer Cells (PaCa2)", "assay": "Real-time PCR Diabetes Array", "format": "cell-based", "conditions": "100 uM Q10", "procedure": "as §2"}, "SKBr3": {"test_system": "SKBr3", "assay": "Nexin assay for apoptosis (Annexin-V-PE/7-AAD, flow cytometry)", "format": "cell-based, human", "conditions": "50 μM or 100 μM Q10, 24 hours", "source_text": "as §3"}, "SK-MEL-28 mitochondria": {"test_system": "SK-MEL-28 mitochondria", "conditions": "human, 48 h, 100 µM", "method": "Cells were centrifuged, pelleted, flash frozen and stored at −80° C. until the mitochondria were isolated. Cell pellets were thawed, resuspended and ruptured in Dounce homogenizer. The homogenate was centrifuged and mitochondria were isolated using reagents and the protocol recommended by the Mitochondria Isolation kit for Cultured cells (MitoSciences, Eugene Oreg., Cat #MS852). The mitochondrial fraction was aliquoted and stored at −80° C.\nAnalysis was by LC-MS/MS on a Waters Quattro II triple quadrupole mass spectrometer with a Prism RP 1×100 mm, 5 μm particle size column (Keystone Scientific). Isocratic elution with 4 mM ammonium formate in 20% isopropyl alcohol 80% methanol at a flow rate of 50 μl/min. Ten μl of each sample was injected."}, "[6]": {"test_system": "induced pancreatic cancer", "conditions": "for survival after 28 days: intravenous"}, "[7]": {"conditions": "100 μM Q10, Down regulated at 6 hours"}}, "note": "Like-named read-outs stand apart in the source and are kept apart here."}
{"smiles": "COC1=C(OC)C(=O)C(C/C=C(\\C)CC/C=C(\\C)CC/C=C(\\C)CC/C=C(\\C)CC/C=C(\\C)CC/C=C(\\C)CC/C=C(\\C)CC/C=C(\\C)CC/C=C(\\C)CCC=C(C)C)=C(C)C1=O", "note": "[Q10, Coenzyme Q10]", "values": [{"measurement": "mRNAs Bcl2, Bcl2L1, Bcl2L11, Birc6, Bax, Xiap, Hprt1, Apaf1, Abl1, Braf", "setting": "SkBr-3 cells; SkBr3, Q10 24 hr", "value": "affected"}, {"measurement": "Bcl-xl mRNA level", "setting": "SkBr-3 cells; apoptosis array", "value": "significant up-regulation"}, {"measurement": "OCR values", "setting": "[1]", "value": "consistent reduction in OCR values"}, {"measurement": "DNAJB5 Regulation", "setting": "SCC cells [2]; [7]", "value": "Down"}, {"measurement": "DNAJB13 Regulation", "setting": "SCC cells [2]; [7]", "value": "Down"}, {"measurement": "DNAJC4 Regulation", "setting": "SCC cells [2]; [7]", "value": "Down"}, {"measurement": "DNAJC5B Regulation", "setting": "SCC cells [2]; [7]", "value": "Down"}, {"measurement": "DNAJC12 Regulation", "setting": "SCC cells [2]; [7]", "value": "Down"}, {"measurement": "CCT6B Regulation", "setting": "SCC cells [2]; 100 μM Q10, Down regulated at 24 hours", "value": "Down"}, {"measurement": "DNAJA1 Regulation", "setting": "SCC cells [2]; 100 μM Q10, at 6 hours", "value": "Up regulated"}, {"measurement": "HSPA8 Regulation", "setting": "SCC cells [2]; 100 μM Q10, at 6 hours", "value": "Up regulated"}, {"measurement": "HSPH1 Regulation", "setting": "SCC cells [2]; 100 μM Q10, at 6 hours", "value": "Up regulated"}, {"measurement": "apoptosis array genes (ABL1, AKT1, Bcl2L1 ... TNFSF10 as listed)", "setting": "[3]; 100 uM Q10", "value": "modulated by Q10 treatment"}, {"measurement": "genes from the apoptosis array whose expression is regulated", "setting": "[3]; 100 μM Q10, genes: CASP1, CASP6, TNF, TNFSF10, ABL1, AKT1, BclAF1, Bcl2L1, CASP2, CIDEA, FADD, LTA, TNFSF10A", "value": "A list of genes from the apoptosis array whose expression is regulated"}, {"measurement": "TNFRSF1A Regulation", "setting": "SCC cells [4]; 100 μM Q10, at 6 and 24 hours", "value": "Down regulated at 6"}, {"measurement": "G6PD Regulation", "setting": "SCC cells [4]; 100 μM Q10, at 6 hours", "value": "Down regulated at 6"}, {"measurement": "ICAM1 Regulation", "setting": "SCC cells [4]; 100 μM Q10, at 6 hours", "value": "Down regulated at 6"}, {"measurement": "INPPL1 Regulation", "setting": "SCC cells [4]; 100 μM Q10, at 6 hours", "value": "Down regulated at 6"}, {"measurement": "NOS3 Regulation", "setting": "SCC cells [4]; 100 μM Q10, at 6 hours", "value": "Down regulated at 6"}, {"measurement": "PIK3CD Regulation", "setting": "SCC cells [4]; 100 μM Q10, at 6 hours", "value": "Down regulated at 6"}, {"measurement": "PPARA Regulation", "setting": "SCC cells [4]; 100 μM Q10, at 6 hours", "value": "Down regulated at 6"}, {"measurement": "PYGL Regulation", "setting": "SCC cells [4]; 100 μM Q10, at 6 hours", "value": "Down regulated at 6"}, {"measurement": "SREBF1 Regulation", "setting": "SCC cells [4]; 100 μM Q10, at 6 hours", "value": "Down regulated at 6"}, {"measurement": "STXBP2 Regulation", "setting": "SCC cells [4]; 100 μM Q10, at 6 hours", "value": "Down regulated at 6"}, {"measurement": "TNF Regulation", "setting": "SCC cells [4]; 100 μM Q10, at 6 hours", "value": "Down regulated at 6"}, {"measurement": "VEGFA Regulation", "setting": "SCC cells [4]; 100 μM Q10, at 6 hours", "value": "Down regulated at 6"}, {"measurement": "apoptotic population", "setting": "SK-MEL28", "value": "increase only in early apoptotic population"}, {"measurement": "early and late apoptotic population", "setting": "PC-3", "value": "increase in both early and late apoptotic population"}, {"measurement": "apoptotic population", "setting": "MCF-7", "value": "increase only in early apoptotic population"}, {"measurement": "Indication of Early apoptosis (Bcl-2, annexin V, or caspase activation)", "setting": "various cell types; BONE: Ewing's sarcoma (NCI), wrapped cell reads Extremely strong", "value": "Extremely"}, {"measurement": "Indication of Early apoptosis (Bcl-2, annexin V, or caspase activation)", "setting": "various cell types; BREAST: Mammary fiboblasts: 184A1 and 184B5) (Lawrence Berkeley)", "value": "None"}, {"measurement": "Indication of Early apoptosis (Bcl-2, annexin V, or caspase activation)", "setting": "various cell types; SKIN: Melanoma (Skmel 2)", "value": "Very Strong"}, {"measurement": "Indication of Early apoptosis (Bcl-2, annexin V, or caspase activation)", "setting": "various cell types; SKIN: Melanoma (Skmel 28)", "value": "Strong"}, {"measurement": "Indication of Early apoptosis (Bcl-2, annexin V, or caspase activation)", "setting": "various cell types; SKIN: SCC, Squamous cell carcinoma", "value": "Very Strong"}, {"measurement": "dose dependent response of cancer vs control cell lines", "setting": "various cell types; keratinocytes, melanocytes vs SK-MEL-28, SK-MEL-2, SCC, PaCa2, HEP-G2, various levels", "value": "induction of apoptosis and cell death in the cancer cells only"}, {"measurement": "efficacy of treatment by cell type", "setting": "various cell types; oncogenic cell lines of differing aggressiveness", "value": "greater in cell types that exhibited increased oncogenicity and/or greater metastatic potential"}, {"measurement": "diabetes array genes (ABCC8, ACLY, ADRB3 ... IL4R, IL6 as listed)", "setting": "[5]", "value": "modulated by Q10 treatment"}, {"measurement": "early and late apoptosis", "setting": "SKBr3", "value": "did not show any significant increases of early and late apoptosis"}, {"measurement": "Q10H2", "setting": "SK-MEL-28 mitochondria", "value": 0.28, "unit": "ng/Sample"}, {"measurement": "increase in the levels of Q10H2", "setting": "SK-MEL-28 mitochondria", "value": 3, "unit": "fold"}, {"measurement": "dose response of survival", "setting": "[6]; 5 to 50 mg/kg", "value": "those animals receiving higher doses had a higher survival rate"}, {"measurement": "survival after 28 days", "setting": "[6]; Group G: 50 mg/kg", "value": "all of the animals receiving the highest dose of coenzyme Q10 (Group G) remained alive at 28 days"}, {"measurement": "survival after 28 days", "setting": "[6]; Groups D, E, F: 5, 10, 25 mg/kg", "value": "most of the animals in Groups D, E and F remained alive"}]}
